Columns and labels:
Type in all cases: cell-based
TLR8 = molecular target: T1, TLR8 (Homo sapiens, UniProt Q9NR97); test: TLR8 EC50 assay; conditions: Table 2
T1 sequence (Q9NR97 27-1041): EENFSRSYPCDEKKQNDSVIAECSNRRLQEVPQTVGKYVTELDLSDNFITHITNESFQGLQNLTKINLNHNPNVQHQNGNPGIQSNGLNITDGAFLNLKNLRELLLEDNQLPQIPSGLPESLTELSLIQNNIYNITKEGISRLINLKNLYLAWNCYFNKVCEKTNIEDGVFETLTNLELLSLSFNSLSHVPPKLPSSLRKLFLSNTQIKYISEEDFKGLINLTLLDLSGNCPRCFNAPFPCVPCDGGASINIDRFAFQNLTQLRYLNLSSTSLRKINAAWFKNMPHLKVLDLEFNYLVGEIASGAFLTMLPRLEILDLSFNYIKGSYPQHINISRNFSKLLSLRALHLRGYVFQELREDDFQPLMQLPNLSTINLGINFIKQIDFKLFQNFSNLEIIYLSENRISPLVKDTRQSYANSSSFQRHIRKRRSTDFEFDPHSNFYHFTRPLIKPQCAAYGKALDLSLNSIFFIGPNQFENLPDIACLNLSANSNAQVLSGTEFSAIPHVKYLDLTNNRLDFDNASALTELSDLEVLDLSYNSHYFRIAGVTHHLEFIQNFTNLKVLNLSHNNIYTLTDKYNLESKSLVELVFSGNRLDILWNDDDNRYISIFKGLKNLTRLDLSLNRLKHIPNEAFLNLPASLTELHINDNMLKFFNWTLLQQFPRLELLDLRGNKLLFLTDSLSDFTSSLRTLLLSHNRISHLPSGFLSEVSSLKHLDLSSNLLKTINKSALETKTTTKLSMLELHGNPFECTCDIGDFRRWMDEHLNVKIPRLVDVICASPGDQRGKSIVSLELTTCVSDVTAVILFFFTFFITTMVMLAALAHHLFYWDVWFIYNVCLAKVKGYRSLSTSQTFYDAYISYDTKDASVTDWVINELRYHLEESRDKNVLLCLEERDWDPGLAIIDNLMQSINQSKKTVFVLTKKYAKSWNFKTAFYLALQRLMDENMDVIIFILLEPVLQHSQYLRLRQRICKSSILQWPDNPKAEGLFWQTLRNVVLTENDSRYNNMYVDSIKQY

hNLRP3 = molecular target: T2, hNLRP3 (Homo sapiens, UniProt Q96P20); test: hNLRP3 agonist assay: IL-1β production in PMA-differentiated THP-1 cells (ELISA); conditions: Table 2, 4 hours, IL-1β by ELISA
T2 construct: THP-1 cells were purchased from the American Type Culture Collection; host or cells: THP-1 cells, PMA-differentiated
Protocol: THP-1 cells were purchased from the American Type Culture Collection and sub-cultured according to instructions from the supplier. Prior to experiments, cells were cultured in RPMI 1640 containing 10% heat inactivated FBS, penicillin (100 units/ml) and streptomycin (100 μg/ml), and maintained in log phase prior to experimental setup. Prior to the experiment THP-1 were treated with PMA (Phorbol 12-myristate 13-acetate) (10 μg/ml) for 24 hours. The day of the experiment the media was removed and attaching cells were treated with trypsin for 2 minutes, cells were then collected, washed with PBS (phosphate buffer saline), spin down, resuspended in 2% heat inactivated FBS with RPMI at a concentration of 1×10^6 cells/ml, and 100 μl was plated in a 96 well plate. Cells were incubated with compounds for 4 hours. Cell free supernatant was collected and the production of IL-1β was evaluated by ELISA. Compounds were dissolved in dimethyl sulfoxide (DMSO) and added to the culture medium to achieve desired concentration (e.g. 100, 30, 10, 3, 1, 0.3 or 0.1 μM). A vehicle only control was run concurrently with each experiment. Final DMSO concentration was 1%.

TLR7 = molecular target: T3, TLR7 (Homo sapiens, UniProt Q9NYK1); test: TLR7 EC50 assay; conditions: Table 2
T3 sequence (Q9NYK1 27-1049): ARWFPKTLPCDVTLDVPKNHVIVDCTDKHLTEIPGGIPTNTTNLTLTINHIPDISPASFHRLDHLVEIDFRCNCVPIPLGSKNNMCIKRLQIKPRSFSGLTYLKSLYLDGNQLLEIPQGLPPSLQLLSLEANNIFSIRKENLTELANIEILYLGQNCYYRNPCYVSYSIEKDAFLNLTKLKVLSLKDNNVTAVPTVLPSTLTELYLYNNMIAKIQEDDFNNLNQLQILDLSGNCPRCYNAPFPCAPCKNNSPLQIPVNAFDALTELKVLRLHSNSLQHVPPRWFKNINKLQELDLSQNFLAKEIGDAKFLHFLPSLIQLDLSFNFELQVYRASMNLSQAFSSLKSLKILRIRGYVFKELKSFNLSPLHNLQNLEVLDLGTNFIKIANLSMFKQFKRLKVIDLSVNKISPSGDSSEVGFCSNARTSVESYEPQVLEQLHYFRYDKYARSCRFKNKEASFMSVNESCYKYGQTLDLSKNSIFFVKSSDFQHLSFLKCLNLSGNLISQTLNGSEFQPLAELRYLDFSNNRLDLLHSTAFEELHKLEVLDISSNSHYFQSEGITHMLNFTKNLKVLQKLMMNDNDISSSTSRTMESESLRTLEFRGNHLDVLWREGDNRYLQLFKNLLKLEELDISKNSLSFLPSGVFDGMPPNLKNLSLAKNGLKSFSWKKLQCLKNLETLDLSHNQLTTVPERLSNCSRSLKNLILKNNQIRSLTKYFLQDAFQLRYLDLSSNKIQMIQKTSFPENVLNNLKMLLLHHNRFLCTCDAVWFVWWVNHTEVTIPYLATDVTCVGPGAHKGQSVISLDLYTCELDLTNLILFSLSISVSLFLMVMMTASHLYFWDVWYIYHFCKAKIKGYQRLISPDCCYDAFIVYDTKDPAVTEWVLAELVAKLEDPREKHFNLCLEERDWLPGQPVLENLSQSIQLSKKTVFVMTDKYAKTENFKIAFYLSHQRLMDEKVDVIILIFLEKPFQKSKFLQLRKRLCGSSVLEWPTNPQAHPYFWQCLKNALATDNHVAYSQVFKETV

T2 sequence (Q96P20 whole entry): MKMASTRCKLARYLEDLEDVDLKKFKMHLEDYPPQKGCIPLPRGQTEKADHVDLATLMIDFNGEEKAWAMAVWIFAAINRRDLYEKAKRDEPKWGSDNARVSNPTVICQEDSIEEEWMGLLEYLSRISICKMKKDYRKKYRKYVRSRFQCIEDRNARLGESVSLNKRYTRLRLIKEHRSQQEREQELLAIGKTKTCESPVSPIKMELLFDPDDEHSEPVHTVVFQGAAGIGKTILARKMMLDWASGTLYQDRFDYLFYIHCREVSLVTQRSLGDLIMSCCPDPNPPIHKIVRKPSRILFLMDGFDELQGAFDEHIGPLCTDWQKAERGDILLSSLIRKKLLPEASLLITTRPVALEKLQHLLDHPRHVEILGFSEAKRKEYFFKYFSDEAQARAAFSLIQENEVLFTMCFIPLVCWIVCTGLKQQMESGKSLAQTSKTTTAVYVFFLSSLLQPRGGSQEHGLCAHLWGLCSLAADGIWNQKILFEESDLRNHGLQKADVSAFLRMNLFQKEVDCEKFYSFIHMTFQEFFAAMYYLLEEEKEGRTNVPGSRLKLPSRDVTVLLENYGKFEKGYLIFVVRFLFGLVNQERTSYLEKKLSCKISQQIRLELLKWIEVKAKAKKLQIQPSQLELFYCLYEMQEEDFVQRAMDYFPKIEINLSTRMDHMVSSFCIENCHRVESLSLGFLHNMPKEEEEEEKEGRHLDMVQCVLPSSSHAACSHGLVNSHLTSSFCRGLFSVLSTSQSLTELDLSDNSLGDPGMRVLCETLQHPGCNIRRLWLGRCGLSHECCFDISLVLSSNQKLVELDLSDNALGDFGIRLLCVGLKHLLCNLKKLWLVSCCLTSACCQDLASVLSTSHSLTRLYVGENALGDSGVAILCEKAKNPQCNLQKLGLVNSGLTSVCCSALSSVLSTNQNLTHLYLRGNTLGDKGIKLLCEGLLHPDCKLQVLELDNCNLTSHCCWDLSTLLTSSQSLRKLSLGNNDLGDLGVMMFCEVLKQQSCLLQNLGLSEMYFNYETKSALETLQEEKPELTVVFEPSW

Row | SMILES | EC50 (TLR8) [µM] | EC50 (hNLRP3) [µM] | EC50 (TLR7) [µM]
1 | Cc1ccc2c(c1)nc(N)c1nc(CCCO)[nH]c12 [Compound 111] | 20 to 100 | 1 to 20 | > 100
2 | Cc1ccc(-c2ccc3c(c2)nc(N)c2nc(CCCO)[nH]c23)cn1 [Compound 172, 3-[4-amino-7-(6-methylpyridin-3-yl)-1H-imidazo[4,5-c]quinolin-2-yl]propan-1-ol] | > 100 | > 100 | > 100
3 | Nc1nc2cc(-c3ccsc3)ccc2c2[nH]c(CCCO)nc12 [Compound 186, 3-(4-amino-7-thiophen-3-yl-1H-imidazo[4,5-c]quinolin-2-yl)propan-1-ol] | > 100 | ≤ 1 | > 100
4 | Nc1nc2cc(-c3cccnc3F)ccc2c2[nH]c(CCCOCc3ccccc3)nc12 [Compound 157, 7-(2-fluoropyridin-3-yl)-2-(3-phenylmethoxypropyl)-1H-imidazo[4,5-c]quinolin-4-amine] | > 100 | > 100 | > 100
5 | COc1cccc(-c2ccc3c(c2)nc(N)c2nc(CCCO)[nH]c23)n1 [Compound 246] | > 100 | 1 to 20 | > 100
6 | CC(=O)c1ccc2c(c1)nc(N)c1nc(CCCO)[nH]c12 [Compound 119] | > 100 | 1 to 20 | > 100
7 | Nc1nc2ccccc2c2[nH]c([C@H]3CC[C@H](O)CC3)nc12 [Compound 135] | > 100 | 20 to 100 | > 100
8 | N#Cc1cccc(-c2ccc3c(c2)nc(N)c2nc(CCCO)[nH]c23)c1 [Compound 207, 3-[4-amino-2-(3-hydroxypropyl)-1H-imidazo[4,5-c]quinolin-7-yl]benzonitrile] | > 100 | > 100 | > 100
9 | Nc1nc2cc(Br)c(F)cc2c2[nH]c(CCCO)nc12 [Compound 118] | > 100 | 1 to 20 | > 100
10 | Nc1nc2cc(-c3ccccc3F)ccc2c2[nH]c(CCCO)nc12 [Compound 203, 3-[4-amino-7-(2-fluorophenyl)-1H-imidazo[4,5-c]quinolin-2-yl]propan-1-ol] | > 100 | > 100 | > 100
11 | Nc1nc2cc(-c3nccs3)ccc2c2[nH]c(CCCO)nc12 [Compound 184, 3-[4-amino-7-(1,3-thiazol-2-yl)-1H-imidazo[4,5-c]quinolin-2-yl]propan-1-ol] | > 100 | > 100 | > 100
12 | Nc1nc2cc(-c3ccc(F)cc3)ccc2c2[nH]c(CCCO)nc12 [Compound 212, 3-[4-amino-7-(4-fluorophenyl)-1H-imidazo[4,5-c]quinolin-2-yl]propan-1-ol] | 20 to 100 | > 100 | > 100
13 | Cc1cc2nc(N)c3nc(CCCO)[nH]c3c2cc1F [Compound 128] | 20 to 100 | 20 to 100 | > 100
14 | COc1cccc(-c2ccc3c(c2)nc(N)c2nc(CCCO)[nH]c23)c1 [Compound 206, 3-[4-amino-7-(3-methoxyphenyl)-1H-imidazo[4,5-c]quinolin-2-yl]propan-1-ol] | > 100 | > 100 | > 100
15 | CC(=O)N1CCC(c2nc3c(N)nc4cc(Br)ccc4c3[nH]2)CC1 [Compound 226] | > 100 | 20 to 100 | > 100
16 | Nc1nc2cc(-c3cc[nH]n3)ccc2c2[nH]c(CCCO)nc12 [Compound 189, 3-[4-amino-7-(1H-pyrazol-3-yl)-1H-imidazo[4,5-c]quinolin-2-yl]propan-1-ol] | > 100 | ≤ 1 | > 100
17 | Nc1nc2cc(Br)ccc2c2[nH]c(C3CCC(N)CC3)nc12 (stereo not drawn) [Compound 131] | 20 to 100 | 20 to 100 | > 100
18 | Nc1nc2cc(N3CCCCC3)ccc2c2[nH]c(CCCO)nc12 [Compound 167, 3-(4-amino-7-piperidin-1-yl-1H-imidazo[4,5-c]quinolin-2-yl)propan-1-ol] | > 100 | > 100 | > 100
19 | Nc1nc2cc(-c3cccnc3F)ccc2c2[nH]c(CCCO)nc12 [Compound 158, 3-[4-amino-7-(2-fluoropyridin-3-yl)-1H-imidazo[4,5-c]quinolin-2-yl]propan-1-ol] | > 100 | 1 to 20 | > 100
20 | CN(C)c1ncc(-c2ccc3c(c2)nc(N)c2nc(CCCO)[nH]c23)cn1 [Compound 156, 3-[4-amino-7-[2-(dimethylamino)pyrimidin-5-yl]-1H-imidazo[4,5-c]quinolin-2-yl]propan-1-ol] | > 100 | > 100 | > 100
21 | Cn1c(CCCO)nc2c(N)nc3cc(-n4cccn4)ccc3c21 [Compound 108] | > 100 | ≤ 1 | > 100
22 | Nc1nc2cc(-c3cccs3)ccc2c2[nH]c(CCCO)nc12 [Compound 187, 3-(4-amino-7-thiophen-2-yl-1H-imidazo[4,5-c]quinolin-2-yl)propan-1-ol] | > 100 | ≤ 1 | > 100
23 | Nc1nc2cc(-c3ccc(O)nc3)ccc2c2[nH]c(CCCO)nc12 [Compound 176, 5-[4-amino-2-(3-hydroxypropyl)-1H-imidazo[4,5-c]quinolin-7-yl]pyridin-2-ol] | > 100 | > 100 | > 100
24 | Cc1ncc(-c2ccc3c(c2)nc(N)c2nc(CCCOCc4ccccc4)[nH]c23)cn1 [Compound 154, 7-(2-methylpyrimidin-5-yl)-2-(3-phenylmethoxypropyl)-1H-imidazo[4,5-c]quinolin-4-amine] | > 100 | 1 to 20 | > 100
25 | CCN(C(=O)OC(C)(C)C)C(C)(C)c1nc2c(N)nc3cc(-c4cc[nH]n4)ccc3c2n1Cc1ccc(OC)cc1 [Compound 252] | > 100 | 1 to 20 | > 100
26 | CN(CCCc1nc2c(N)nc3cc(-c4cncnc4)ccc3c2[nH]1)C(=O)OC(C)(C)C [Compound 123] | > 100 | 1 to 20 | > 100

Reference: patent US11072612B2, “NLRP3 modulators” (INNATE TUMOR IMMUNITY, INC., priority 2016, dated 2021)
